Source: publication PMC10800876, “Evaluation of proline-rich antimicrobial peptides as potential lead structures for novel antimycotics against Cryptococcus neoformans” (Frontiers in Microbiology, 2024)
Values after ≈ are worked out from the molar mass of the structure shown. Like-named read-outs stand apart in the source and are kept apart here. Non-standard residues stand in square brackets, D forms with d. Residues, ends and D or L forms follow the SMILES beside them. *: point of attachment. Orn(α-tetramethylguanidino) = CN(C)C(=N[C@@H](CCCN)C(=O)*)N(C)C; Ac6c = NC1(C(=O)O)CCCCC1

How the values were obtained:
C. neoformans 1841 [1] = assay: Time-kill assay; format: cell-based, Cryptococcus neoformans; settings: 2.5 μmol/L, 30°C, up to 24 h
Description: The kinetic effects of the antifungal activity were determined by diluting overnight cultures to 5 × 10^4 CFU/mL with 50% SAB in phosphate buffer. Aqueous peptide solutions (20 μL) were added to the cell suspension (80 μL) to give a final peptide concentration of 2.5 μmol/L. Samples were incubated at 30°C on an orbital shaker (750 rpm, Titramax 1,000, Heidolph Instruments GmbH & Co. KG) for 24 h. Before incubation (0 min) and after 45 min, 90 min, 3 h, 6 h, and 24 h incubation, aliquots (10 μL) of samples were taken and diluted with phosphate buffer (10 mmol/L, pH 7.5) to observe countable cell colonies. Aliquots (100 μL) of the diluted cell suspensions were plated on SAB agar plates. Plates were incubated at 30°C and colonies were counted after 24 h.

[2] = tested on: C. neoformans KN99α (serotype A, mating type MATα); settings: for MIC (μmol/L) KN99α 48 h: KN99α (serotype A, mating type MATα, 48 h); for MIC (μmol/L) KN99α 24 h: KN99α (serotype A, mating type MATα, 24 h)
C. neoformans KN99α = assay: Antifungal activity assay (CFU on SAB agar); format: cell-based, Cryptococcus neoformans; settings: treatment 3 h, 30 °C, mean ± SD, n = 4; for cell count C. neoformans KN99α, 24 h: CFU counted after 24 h; for cell count C. neoformans KN99α, 48 h: CFU counted after 48 h
[3] = tested on: C. neoformans H99 (serotype A); settings: for MIC (μmol/L) H99 24 h: H99 (serotype A, 24 h)
C. neoformans H99 = assay: Antifungal activity assay (CFU on SAB agar); format: cell-based, Cryptococcus neoformans; settings: treatment 3 h, 30 °C, mean ± SD, n = 4; for cell count C. neoformans H99, 24 h: CFU counted after 24 h; for cell count C. neoformans H99, 48 h: CFU counted after 48 h
[4] = tested on: C. neoformans 1841 (serotype D); settings: for MIC (μmol/L) 1841 48 h: 1841 (serotype D, 48 h, pH 7.5); for MIC (μmol/L) 1841 24 h: 1841 (serotype D, 24 h, pH 7.5)
[5] = tested on: C. neoformans strains 1841, H99, and KN99α; assay: Antifungal activity assay (CFU); format: cell-based, Cryptococcus neoformans
C. neoformans 1841 [6] = assay: Antifungal activity assay (CFU on SAB agar); format: cell-based, Cryptococcus neoformans; settings: treatment 3 h, 30 °C, mean ± SD, n = 4; for cell count C. neoformans 1841, 24 h: CFU counted after 24 h; for cell count C. neoformans 1841, 48 h: CFU counted after 48 h
C. neoformans 1841 [7] = assay: Scanning electron microscopy, damaged cells; format: cell-based, Cryptococcus neoformans; settings: 200 μmol/L, 10^8 CFU/mL, 3 h, 30°C
Description: Overnight cultures of C. neoformans 1841 were prepared as described and adjusted with 50% SAB in phosphate buffer to reach 1 × 10^8 CFU/mL. Aqueous peptide solutions (20 μL) were added to the cell suspension (80 μL) to give a final peptide concentration of 200 μmol/L. Samples were incubated at 30°C on an orbital shaker (750 rpm) for 3 h. Samples were centrifuged (2,000 × g, 10 min, 4°C, Microfuge 22R, Beckmann Coulter), cell pellets were washed with ice-cold phosphate-buffered saline (PBS, 100 μL) and centrifuged again. Cell pellets were re-suspended in PBS (25 μL) and adhered overnight in humid atmosphere to glass coverslips (Borosilicate Glass, VWR International GmbH) previously coated with 0.001% poly-L-lysine (in case of Critical-Point Drying). Cells were fixed (2% glutaraldehyde, 2% paraformaldehyde, in PBS) for 60 min and afterwards stained with 1% OsO4 in PBS for 60 min. The cells were gradually dehydrated in ethanol series (30, 50, 70, 85, 90, 96% (once), and 100% (thrice) for 10 min. The coverslips were critical-point-dried (Baltec CPD 030, BAL-TEC GmbH, Schalksmühle, Germany) or air-dried after incubation with HMDS (3 min, RT) and sputter coated with 20 nm gold/palladium (Baltec MED 020, BAL-TEC GmbH). Cells were visualized using the SEM secondary electron detector (Zeiss EVO LS 15 LaB6, Carl Zeiss Microscopy Deutschland GmbH).
GraphPad Prism 10.0.3 software was used for statistical analysis of the recorded data. A Dunnett’s multiple comparisons test (Ordinary-one-way ANOVA) was performed.

[8] = tested on: C. neoformans strains 1841, H99, and KN99α; assay: Broth microdilution assay (MIC); format: cell-based, Cryptococcus neoformans
[9] = broth microdilution, 50% SAB in phosphate buffer, 30°C, read after 24 h, n = 6
[10] = broth microdilution, 50% SAB in phosphate buffer, 30°C, read after 48 h, n = 6

## CC[C@H](C)[C@H](NC(=O)[C@H](Cc1ccc(O)cc1)NC(=O)[C@@H](NC(=O)[C@@H]1CCCN1C(=O)[C@H](CCCNC(=N)N)NC(=O)[C@H](CC(N)=O)NC(=O)[C@H](CC(N)=O)NC(=O)[C@H](CCCN)N=C(N(C)C)N(C)C)C(C)C)C(=O)N1CCC[C@H]1C(=O)N[C@@H](CCCNC(=N)N)C(=O)N1CCC[C@H]1C(=O)N[C@@H](CCCNC(=N)N)C(=O)N1CCC[C@H]1C(=O)N1CCC[C@H]1C(=O)N[C@@H](Cc1c[nH]cn1)C(=O)N1CCC[C@H]1C(=O)N[C@@H](CCCNC(=N)N)C(=O)N[C@@H](CC(C)C)C(N)=O [Api88] ({Orn(α-tetramethylguanidino)}-NNRPVYIPRPRPPHPRL-NH2; N-terminus and C-terminus assumed)
C. neoformans 1841 [1]
  time-dependent antifungal effect: delayed antifungal effect
[2]
  MIC (μmol/L) KN99α 48 h: 7.0 µmol/L (≈ 16 µg/mL)
[2]; [9]
  MIC (mg/L) KN99α 24 h: 8 mg/L (≈ 3.49 µM)
C. neoformans KN99α; 0.25 µmol/L
  cell count C. neoformans KN99α, 24 h: 3.0 ± 0.7 x 10^4 CFU/mL
  cell count C. neoformans KN99α, 48 h: 3.1 ± 0.8 x 10^4 CFU/mL
C. neoformans KN99α; 2.5 µmol/L
  cell count C. neoformans KN99α, 24 h: 3.0 ± 0.6 x 10^4 CFU/mL
  cell count C. neoformans KN99α, 48 h: 3.1 ± 0.7 x 10^4 CFU/mL
C. neoformans KN99α; 25 µmol/L
  cell count C. neoformans KN99α, 24 h: 1.5 ± 0.2 x 10^4 CFU/mL
  cell count C. neoformans KN99α, 48 h: 1.6 ± 0.3 x 10^4 CFU/mL
[3]
  MIC (μmol/L) H99 24 h: 7.0 µmol/L (≈ 16 µg/mL)
[3]; [10]
  MIC (mg/L) H99 48 h: 8 mg/L (≈ 3.49 µM)
C. neoformans H99; 0.25 µmol/L
  cell count C. neoformans H99, 24 h: 2.7 ± 0.4 x 10^4 CFU/mL
  cell count C. neoformans H99, 48 h: 2.8 ± 0.5 x 10^4 CFU/mL
C. neoformans H99; 2.5 µmol/L
  cell count C. neoformans H99, 24 h: 3.0 ± 0.2 x 10^4 CFU/mL
  cell count C. neoformans H99, 48 h: 3.3 ± 0.3 x 10^4 CFU/mL
C. neoformans H99; 25 µmol/L
  cell count C. neoformans H99, 24 h: 1.7 ± 0.2 x 10^4 CFU/mL
  cell count C. neoformans H99, 48 h: 2.0 ± 0.4 x 10^4 CFU/mL
[4]
  MIC (μmol/L) 1841 48 h: 7.0 µmol/L (≈ 16 µg/mL)
[4]; [9]
  MIC (mg/L) 1841 24 h: 8 mg/L (≈ 3.49 µM)
[4]; [10]
  MIC (mg/L) 1841 48 h: 16 mg/L (≈ 6.98 µM)
[5]; 2.5 μmol/L, 3 h incubation
  effect on CFU of C. neoformans strains H99 and KN99α: did not significantly reduce the CFU
C. neoformans 1841 [6]; 0.25 µmol/L
  cell count C. neoformans 1841, 24 h: 2.4 ± 0.1 x 10^4 CFU/mL
  cell count C. neoformans 1841, 48 h: 2.4 ± 0.1 x 10^4 CFU/mL
C. neoformans 1841 [6]; 2.5 µmol/L
  cell count C. neoformans 1841, 24 h: 1.0 ± 0.1 x 10^4 CFU/mL
  cell count C. neoformans 1841, 48 h: 1.0 ± 0.1 x 10^4 CFU/mL
C. neoformans 1841 [6]; 25 µmol/L
  cell count C. neoformans 1841, 24 h: 0.1 ± 0.0 x 10^4 CFU/mL
  cell count C. neoformans 1841, 48 h: 0.1 ± 0.0 x 10^4 CFU/mL
C. neoformans 1841 [7]
  damaged cells in SEM: only a small portion showed deep indentations
[8]; 48 h, forward sequence compared with its scrambled sequence
  MIC at 48 h: 7.0 µM (≈ 16 µg/mL)
[8]; strains 1841, H99, and KN99α, 24 h
  MIC: ≥ 3.5 µM

## CC(C)C[C@H](NC(=O)[C@@H]1CCCN1C(=O)[C@@H]1CCCN1C(=O)[C@H](CCCNC(=N)N)NC(=O)[C@H](Cc1ccc(O)cc1)NC(=O)[C@@H]1CCCN1C(=O)[C@@H]1CCCN1C(=O)[C@H](CCCNC(=N)N)NC(=O)C1(NC(=O)[C@H](CCCNC(=N)N)NC(=O)[C@@H]2CCCN2C(=O)[C@H](CCCCN)NC(=O)[C@@H]2CCCN2C(=O)[C@H](CCCNC(=N)N)NC(=O)[C@@H]2CCCN2C(=O)[C@H](CCCNC(=N)N)NC(=O)[C@@H](NC(=O)[C@H](CCCNC(=N)N)NC(=O)[C@@H](N)CC(=O)O)C(C)C)CCCCC1)C(=O)N1CCC[C@H]1C(N)=O [Chex1Arg20 scr] (H-DRVRPRPKPR[Ac6c]RPPYRPPLP-NH2; N-terminus assumed)
[2]
  MIC (μmol/L) KN99α 24 h: 26 µmol/L (≈ 64.4 µg/mL)
  MIC (μmol/L) KN99α 48 h: 52 µmol/L (≈ 129 µg/mL)
[3]
  MIC (μmol/L) H99 24 h: 26 µmol/L (≈ 64.4 µg/mL)
[3]; H99 (serotype A, 48 h)
  MIC (μmol/L) H99 48 h: 52 µmol/L (≈ 129 µg/mL)
[4]; 1841 (serotype D, 24 h)
  MIC (mg/L) 1841 24 h: 32 to 64 mg/L
[4]
  MIC (μmol/L) 1841 24 h: 13 to 26 µmol/L
  MIC (μmol/L) 1841 48 h: 26 to 52 µmol/L
[4]; 1841 (serotype D, 48 h)
  MIC (mg/L) 1841 48 h: 64 to 128 mg/L
C. neoformans 1841 [7]
  damaged cells in SEM: slightly lower percentage of damaged cells than Chex1Arg20

## CC(C)C[C@H](NC(=O)[C@H](Cc1ccc(O)cc1)NC(=O)[C@@H]1CCCN1C(=O)[C@H](CCCNC(=N)N)NC(=O)[C@@H]1CCCN1C(=O)[C@H](CCCCN)NC(=O)[C@H](CC(=O)O)NC(=O)[C@@H]1CCCN1C(=O)[C@H](CCCNC(=N)N)NC(=O)C1(N)CCCCC1)C(=O)N1CCC[C@H]1C(=O)N[C@@H](CCCNC(=N)N)C(=O)N1CCC[C@H]1C(=O)N[C@@H](CCCNC(=N)N)C(=O)N1CCC[C@H]1C(=O)N1CCC[C@H]1C(=O)N[C@@H](CCCNC(=N)N)C(=O)N1CCC[C@H]1C(=O)N[C@H](C(=O)N[C@@H](CCCNC(=N)N)C(N)=O)C(C)C [Chex1Arg20] (H-[Ac6c]RPDKPRPYLPRPRPPRPVR-NH2; N-terminus assumed)
[2]
  MIC (μmol/L) KN99α 24 h: 1.6 µmol/L (≈ 3.96 µg/mL)
  MIC (μmol/L) KN99α 48 h: 3.2 µmol/L (≈ 7.92 µg/mL)
C. neoformans KN99α; 0.25 µmol/L
  cell count C. neoformans KN99α, 24 h: 2.7 ± 0.4 x 10^4 CFU/mL
  cell count C. neoformans KN99α, 48 h: 2.7 ± 0.4 x 10^4 CFU/mL
C. neoformans KN99α; 2.5 µmol/L
  cell count C. neoformans KN99α, 24 h: 1.0 ± 0.6 x 10^4 CFU/mL
  cell count C. neoformans KN99α, 48 h: 1.8 ± 1.2 x 10^4 CFU/mL
C. neoformans KN99α; 25 µmol/L
  cell count C. neoformans KN99α, 24 h: 0.5 ± 0.8 x 10^4 CFU/mL
  cell count C. neoformans KN99α, 48 h: 0.8 ± 0.9 x 10^4 CFU/mL
[3]
  MIC (μmol/L) H99 24 h: 1.6 µmol/L (≈ 3.96 µg/mL)
[3]; H99 (serotype A, 48 h)
  MIC (mg/L) H99 48 h: 4 to 8 mg/L
  MIC (μmol/L) H99 48 h: 1.6 to 3.2 µmol/L
C. neoformans H99; 0.25 µmol/L
  cell count C. neoformans H99, 24 h: 1.4 ± 0.7 x 10^4 CFU/mL
  cell count C. neoformans H99, 48 h: 1.6 ± 0.8 x 10^4 CFU/mL
C. neoformans H99; 2.5 µmol/L
  cell count C. neoformans H99, 24 h: 1.5 ± 1.0 x 10^4 CFU/mL
  cell count C. neoformans H99, 48 h: 2.5 ± 0.8 x 10^4 CFU/mL
C. neoformans H99; 25 µmol/L
  cell count C. neoformans H99, 24 h: 0.0 ± 0.0 x 10^4 CFU/mL
  cell count C. neoformans H99, 48 h: 0.8 ± 0.2 x 10^4 CFU/mL
[4]
  MIC (μmol/L) 1841 24 h: 1.6 µmol/L (≈ 3.96 µg/mL)
  MIC (μmol/L) 1841 48 h: 3.2 µmol/L (≈ 7.92 µg/mL)
[5]; only small colonies appearing after more than 24 h
  colony formation on agar: delayed colony formation
C. neoformans 1841 [6]; 0.25 µmol/L
  cell count C. neoformans 1841, 24 h: 2.7 ± 0.0 x 10^4 CFU/mL
  cell count C. neoformans 1841, 48 h: 2.8 ± 0.1 x 10^4 CFU/mL
C. neoformans 1841 [6]; 2.5 µmol/L
  cell count C. neoformans 1841, 24 h: 0.0 ± 0.0 x 10^4 CFU/mL
  cell count C. neoformans 1841, 48 h: 0.5 ± 0.1 x 10^4 CFU/mL
C. neoformans 1841 [6]; 25 µmol/L
  cell count C. neoformans 1841, 24 h: 0.0 ± 0.0 x 10^4 CFU/mL
  cell count C. neoformans 1841, 48 h: 0.0 ± 0.0 x 10^4 CFU/mL
C. neoformans 1841 [7]
  damaged cells in SEM: only a small portion showed deep indentations
[8]
  MIC: 4 to 16 µg/mL
